Laboratory results taken from article PMC11747041, “Study of an arginine- and tryptophan-rich antimicrobial peptide in peri-implantitis” (Frontiers in Bioengineering and Biotechnology, 2025).
No end group written: not given here.

Columns and labels:
[1] = system: Fusobacterium nucleatum (ATCC 25586); format: cell-based; conditions: ATCC 25586, 48 h
Description: (§1) Streptococcus gordonii (ATCC 10558) is a facultative anaerobic bacterium, Fusobacterium nucleatum (ATCC 25586) and Porphyromonas gingivalis (BNCC 353909) are obligate anaerobic bacteria. The effectiveness of VR-12 in suppressing bacterial proliferation was assessed using the standard broth dilution method ([Tang et al., 2022]). Various concentrations of VR-12 (1,000–7.8 μg/mL, serial two-fold dilution) were mixed with liquid medium broth containing bacteria (1 × 10^6 CFU/mL) at a ratio of 1:1, with an overall volume of 200 µL. A blank control was established using a 200 µL PBS solution, whereas a negative control was prepared by combining 100 µL PBS solution with 100 µL of bacterial culture (1 × 10^6 CFU/mL). The bacterial cultures were incubated in liquid medium for 24/48 h at 37°C, with daily observation of the bacterial sediment accumulation at the base of the well. MIC refers to the minimal concentration of peptide that induces a clear liquid and no visible bacterial growth in the well. The bacterial suspension in the well with a concentration greater than the MIC was pipetted evenly and 10 µL of the liquid was extracted from the well and transferred to agar plates and incubated for 24/48 h for MBC determination.

[2] = system: Streptococcus gordonii (ATCC 10558); format: cell-based; conditions: ATCC 10558, 48 h
Description: as §1

[3] = system: Porphyromonas gingivalis (BNCC 353909); format: cell-based; conditions: 48 h
Description: as §1

RAW264.7 cells [4] = test: Live/dead assay (calcein AM/PI); format: cell-based, murine; conditions: RAW264.7, 62.5 μg/mL, 24 h, vs untreated cells
Description: (§2) A total of 5 × 10^4 cells per well were inoculated into 24-well plates. After 24 h, the cells were exposed to two different types of culture medium: regular medium and medium supplemented with VR-12 (62.5 μg/mL). Following a 24-hour incubation period, the cells were incubated with 200 µL of fresh medium containing calcein AM solution and propidium iodide (PI; Beyotime, Shanghai, China) solution, protected from light for 20 min at room temperature. The observations were conducted using inverted fluorescence microscopy (IX71, Olympus, Japan) and images were captured for documentation purposes.

rat red blood cells = conditions: 125 μg/mL (maximum concentration examined), rat erythrocytes 5% (v/v) suspension, 37°C, 1.5 h, OD540, 1% Triton X-100 positive control
Description: Initially, the cells underwent three washing cycles with PBS, followed by centrifugation at 1,000 rpm for 10 min at ambient temperature. After removing the supernatant, a suspension of cells at a concentration of 5% (v/v) was prepared using 0.9% NaCl solution (w/v). Subsequently, 100 μL of peptides at varying concentrations (7.81–125 μg/mL, serial two-fold dilution) were combined with 100 μL of the red blood cell suspensions. The mixture underwent incubation at 37°C for a duration of 1.5 h, after which it was subjected to centrifugation at 1,000 rpm for 5 min, and measurement of absorbance at OD540.1% Triton X-100 and NaCl (0.9%) were used as positive and negative controls, respectively. The hemolysis rate (HR) was determined by employing this formula: HR%=ODt−ODn/ODp−ODn×100% where ODp, ODn and ODt were the absorbance values of the positive control group, the negative control group and the test group, respectively.

HGFs = test: Live/dead assay (calcein AM/PI); format: cell-based, human; conditions: 62.5 μg/mL, 24 h, vs untreated cells
Description: as §2

RAW264.7 cells [5] = test: Cell proliferation, CCK-8 assay; format: cell-based, murine; conditions: RAW264.7, 125 μg/mL, CCK-8, OD450
Description: RAW264.7 cells (murine macrophage cell line, ATCC, Manassas, VA, United States) and HGFs (ATCC, Manassas, VA, United States) were cultured (37°C, sterile atmosphere of 5% CO2) in DMEM (Gibco, United States) containing 10% (v/v) fetal bovine serum (FBS, Solarbio Co., Ltd., Beijing, China) and 1% penicillin/streptomycin (Gibco, Carlsbad, CA).
We assessed cell growth using the Cell Counting Kit-8 (CCK-8) assay ([Chen et al., 2022]). Cells (1,000 cells/well) were seeded in a 96-well plate. After 24 h, the cells were treated with VR-12 (7.81–125 μg/mL, serial two-fold dilution) for 1, 3, 5, and 7 days. The wells without VR-12 were used as blank controls. Cells were incubated using the CCK-8 kit (New Cell&Molecular Biotech Co., Ltd., Suzhou, China), and the absorbance was measured at OD450.

VRLWVRVRRWRR-NH2 [VR-12]
MBC [1]: 125 µg/mL | MIC [1]: 62.5 µg/mL | MBC [2]: 62.5 µg/mL | MIC [2]: 31.25 µg/mL | MBC [3]: 125 µg/mL | MIC [3]: 62.5 µg/mL | Cell viability by live/dead staining (RAW264.7 cells [4]): no significant difference in cell viability | Hemolysis rate (rat red blood cells): 3.27% | α-helix + β-sheet proportion: 31.5% | Cell viability by live/dead staining (HGFs): no significant difference in cell viability | Inhibition rate (RAW264.7 cells [5]): approximately 50%
